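Cultured in 96-well plates, cells were exposed to test compound for 48 hours across five concentrations. TGI is the concentration that stops growth completely.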 Where only a bound is given, the exact number is not on record here.

The first assay relates to M19-MEL melanoma. The assay can be described thus: NCI tumour cell line growth inhibition, 48 h.
As to `O=C1NP23(OCCO2)Oc2ccccc2C3(C(F)(F)F)O1` (centres undefined), the TGI is > 100 µM.

`COc1ccc(/C(Cl)=C(\C=O)c2ccc(OC)c(OC)c2)cc1`: the TGI is > 100 µM.

Take `CN1C(=O)CSC1=S`: the TGI was > 100 µM.

As for `COc1c(OC(C)=O)c(OC(C)=O)cc2c1-c1ccc(SC)c(=O)cc1C(NC(C)=O)CC2` (centres undefined), the TGI was > 100 µM.

The subject of the next assay is DMS 114 small cell lung. In words: NCI tumour cell line growth inhibition, 48 h.
Turning to `O=C1NP23(OCCO2)Oc2ccccc2C3(C(F)(F)F)O1` (centres undefined), the TGI is > 100 µM.

As for `COc1ccc(/C(Cl)=C(\C=O)c2ccc(OC)c(OC)c2)cc1`, the TGI is > 100 µM.

Turning to `CN1C(=O)CSC1=S`, the TGI is > 100 µM.

The subject of the next assay is LXFL 529 NSCLC. In words: NCI tumour cell line growth inhibition, 48 h.
With `O=C1NP23(OCCO2)Oc2ccccc2C3(C(F)(F)F)O1` (centres undefined), the TGI is > 100 µM.

Consider `COc1ccc(/C(Cl)=C(\C=O)c2ccc(OC)c(OC)c2)cc1`, for which the TGI was > 100 µM.

With `CN1C(=O)CSC1=S`, the TGI is > 100 µM.

In the case of `COc1c(OC(C)=O)c(OC(C)=O)cc2c1-c1ccc(SC)c(=O)cc1C(NC(C)=O)CC2` (centres undefined), the TGI is > 100 µM.

For a further assay, the system named is DMS 273 small cell lung. In words: NCI tumour cell line growth inhibition, 48 h.
`O=C1NP23(OCCO2)Oc2ccccc2C3(C(F)(F)F)O1` (centres undefined): the TGI was > 100 µM.

Turning to `CN1C(=O)CSC1=S`, the TGI is > 100 µM.

For the compound `COc1c(OC(C)=O)c(OC(C)=O)cc2c1-c1ccc(SC)c(=O)cc1C(NC(C)=O)CC2` (centres undefined), the TGI was > 100 µM.

A further assay relates to XF 498 CNS. The assay can be described thus: NCI tumour cell line growth inhibition, 48 h.
`O=C1NP23(OCCO2)Oc2ccccc2C3(C(F)(F)F)O1` (centres undefined): the TGI was > 100 µM.

Regarding `COc1ccc(/C(Cl)=C(\C=O)c2ccc(OC)c(OC)c2)cc1`, the TGI came out at 56.1 µM.

As for `COc1c(OC(C)=O)c(OC(C)=O)cc2c1-c1ccc(SC)c(=O)cc1C(NC(C)=O)CC2` (centres undefined), the TGI is > 28.8 µM.

The subject of a further assay is SNB-78 CNS. The assay can be described thus: NCI tumour cell line growth inhibition, 48 h.
With `O=C1NP23(OCCO2)Oc2ccccc2C3(C(F)(F)F)O1` (centres undefined), the TGI is > 100 µM.

Take `COc1ccc(/C(Cl)=C(\C=O)c2ccc(OC)c(OC)c2)cc1`: the TGI was > 100 µM.

Turning to `CN1C(=O)CSC1=S`, the TGI is > 100 µM.

`COc1c(OC(C)=O)c(OC(C)=O)cc2c1-c1ccc(SC)c(=O)cc1C(NC(C)=O)CC2` (centres undefined): the TGI was > 100 µM.

Another assay concerns HOP-18 NSCLC. In words: NCI tumour cell line growth inhibition, 48 h.
Consider `O=C1NP23(OCCO2)Oc2ccccc2C3(C(F)(F)F)O1` (centres undefined), for which the TGI is > 100 µM.

As to `COc1ccc(/C(Cl)=C(\C=O)c2ccc(OC)c(OC)c2)cc1`, the TGI is > 100 µM.

In the case of `CN1C(=O)CSC1=S`, the TGI is > 100 µM.

On to `COc1c(OC(C)=O)c(OC(C)=O)cc2c1-c1ccc(SC)c(=O)cc1C(NC(C)=O)CC2` (centres undefined), for which the TGI was > 100 µM.

Another assay concerns DLD-1 colon. The assay can be described thus: NCI tumour cell line growth inhibition, 48 h.
As to `O=C1NP23(OCCO2)Oc2ccccc2C3(C(F)(F)F)O1` (centres undefined), the TGI was > 100 µM.

With `CN1C(=O)CSC1=S`, the TGI was > 100 µM.

Take `COc1c(OC(C)=O)c(OC(C)=O)cc2c1-c1ccc(SC)c(=O)cc1C(NC(C)=O)CC2` (centres undefined): the TGI is > 100 µM.

The test system of a further assay is RXF-631 renal. In words: NCI tumour cell line growth inhibition, 48 h.
For `COc1ccc(/C(Cl)=C(\C=O)c2ccc(OC)c(OC)c2)cc1`, the TGI is > 100 µM.

Values taken from PubChem BioAssay (NCI).
